{
  "source": "patent US20090155209A1",
  "about": "“NOVEL MACROCYCLIC INHIBITORS OF HEPATITIS C VIRUS REPLICATION” (priority 2007, published 2009)",
  "data": [
    {"target": "T1, NS3-NS4 (Hepatitis C virus genotype 1a, UniProt P27958)", "T1 sequence (P27958 1027-1657)": "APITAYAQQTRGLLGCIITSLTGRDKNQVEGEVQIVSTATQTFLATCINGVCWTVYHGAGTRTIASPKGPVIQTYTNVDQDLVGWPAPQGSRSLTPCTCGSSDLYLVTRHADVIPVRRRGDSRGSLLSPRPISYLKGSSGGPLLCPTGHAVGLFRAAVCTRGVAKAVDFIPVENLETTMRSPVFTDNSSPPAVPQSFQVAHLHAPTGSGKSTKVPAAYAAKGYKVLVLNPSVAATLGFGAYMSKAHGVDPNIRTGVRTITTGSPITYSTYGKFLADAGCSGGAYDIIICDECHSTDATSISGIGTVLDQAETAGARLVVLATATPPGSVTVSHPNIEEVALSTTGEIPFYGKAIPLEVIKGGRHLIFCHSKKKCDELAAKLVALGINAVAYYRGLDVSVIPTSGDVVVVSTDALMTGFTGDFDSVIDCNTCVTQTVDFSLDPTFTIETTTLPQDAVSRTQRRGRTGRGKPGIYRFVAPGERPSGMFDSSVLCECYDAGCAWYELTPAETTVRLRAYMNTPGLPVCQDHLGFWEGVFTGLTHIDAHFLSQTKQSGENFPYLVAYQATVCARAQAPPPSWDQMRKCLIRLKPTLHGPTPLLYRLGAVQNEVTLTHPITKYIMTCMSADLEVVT", "T1 sequence (P27958 1658-1711)": "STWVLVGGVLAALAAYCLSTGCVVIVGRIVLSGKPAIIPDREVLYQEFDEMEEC", "test": "NS3-NS4 activity, IC50 (Example 37, Table 8)", "format": "biochemical", "conditions": "not given", "units": {"IC50": "nM"}, "values": [
      {"smiles": "C=CCC1(S(=O)(=O)NC(=O)[C@@]23C[C@H]2/C=C\\CCCCC[C@H](NC(=O)OC(C)(C)C)C(=O)N2C[C@H](OC(=O)N4Cc5cccc(F)c5C4)C[C@H]2C(=O)N3)CC1", "note": "[Compound 543]", "IC50": "< 100"},
      {"smiles": "CC(C)(C)OC(=O)N[C@H]1CCCCC/C=C\\[C@@H]2C[C@@]2(C(=O)NS(=O)(=O)Cc2ccc(C(F)(F)F)cc2)NC(=O)[C@@H]2C[C@@H](OC(=O)N3Cc4cccc(F)c4C3)CN2C1=O", "note": "[Compound 519]", "IC50": "< 100"},
      {"smiles": "CC(C)(C)OC(=O)N[C@H]1CCCCC/C=C\\[C@@H]2C[C@@]2(C(=O)NS(=O)(=O)c2ccccc2Cl)NC(=O)[C@@H]2C[C@@H](OC(=O)N3Cc4cccc(F)c4C3)CN2C1=O", "note": "[Compound 332]", "IC50": "< 100"},
      {"smiles": "CC(C)(C)OC(=O)N[C@H]1CCCCC/C=C\\[C@@H]2C[C@@]2(C(=O)NS(=O)(=O)c2c(F)cccc2F)NC(=O)[C@@H]2C[C@@H](OC(=O)N3Cc4cccc(F)c4C3)CN2C1=O", "note": "[Compound 306]", "IC50": "< 100"},
      {"smiles": "CC(C)(C)OC(=O)N[C@H]1CCCCCCC[C@@H]2C[C@@]2(C(=O)NS(=O)(=O)c2ccccc2C(F)(F)F)NC(=O)[C@@H]2C[C@@H](OC(=O)N3Cc4cccc(F)c4C3)CN2C1=O", "note": "[Compound 605]", "IC50": "< 100"},
      {"smiles": "CC(=O)O[C@@H]1C[C@H]2C(=O)N[C@]3(C(=O)NS(=O)(=O)C4CC4)C[C@H]3/C=C\\CCCCC[C@H](Nc3nc(-c4ccc(F)cc4)cs3)C(=O)N2C1", "note": "[Compound 233]", "IC50": "< 100"},
      {"smiles": "CC(C)(C)OC(=O)N[C@H]1CCCCC[C@H]2C[C@H]2[C@@H]2C[C@@]2(C(=O)NS(=O)(=O)C2CC2)NC(=O)[C@@H]2C[C@@H](OC(=O)N3Cc4cccc(F)c4C3)CN2C1=O", "note": "[Compound 904]", "IC50": "< 100"},
      {"smiles": "Cc1csc(S(=O)(=O)NC(=O)[C@@]23C[C@H]2/C=C\\CCCCC[C@H](NC(=O)OC(C)(C)C)C(=O)N2C[C@H](OC(=O)N4Cc5cccc(F)c5C4)C[C@H]2C(=O)N3)c1", "note": "[Compound 539]", "IC50": "< 100"},
      {"smiles": "CC(=O)O[C@@H]1C[C@H]2C(=O)N[C@]3(C(=O)NS(=O)(=O)C4CC4)C[C@H]3/C=C\\CCCCC[C@H](Nc3nc(-c4ccc(F)cc4)c(C)s3)C(=O)N2C1", "note": "[Compound 239]", "IC50": "< 100"},
      {"smiles": "CC(C)(C)OC(=O)N[C@H]1CCCCCCC[C@@H]2C[C@@]2(C(=O)NS(=O)(=O)c2ccccc2Cl)NC(=O)[C@@H]2C[C@@H](OC(=O)N3Cc4cccc(F)c4C3)CN2C1=O", "note": "[Compound 603]", "IC50": "< 100"},
      {"smiles": "CC(C)ONC(=O)[C@@]12C[C@H]1CCCCCCC[C@H](NC(=O)OC(C)(C)C)C(=O)N1C[C@H](OC(=O)N3Cc4cccc(F)c4C3)C[C@H]1C(=O)N2", "note": "[Compound 812]", "IC50": "< 100"},
      {"smiles": "Cc1ccccc1S(=O)(=O)NC(=O)[C@@]12C[C@H]1/C=C\\CCCCC[C@H](NC(=O)OC1CCC1)C(=O)N1C[C@H](OC(=O)N3Cc4cccc(F)c4C3)C[C@H]1C(=O)N2", "note": "[Compound 338]", "IC50": "< 100"}
    ]},
    {"target": "T1, NS3-NS4", "test": "cell-based", "conditions": "EC50, NS3-NS4 activity", "units": {"EC50": "nM"}, "values": [
      {"smiles": "C=CCC1(S(=O)(=O)NC(=O)[C@@]23C[C@H]2/C=C\\CCCCC[C@H](NC(=O)OC(C)(C)C)C(=O)N2C[C@H](OC(=O)N4Cc5cccc(F)c5C4)C[C@H]2C(=O)N3)CC1", "note": "[Compound 543]", "EC50": "< 100"},
      {"smiles": "CC(C)(C)OC(=O)N[C@H]1CCCCC/C=C\\[C@@H]2C[C@@]2(C(=O)NS(=O)(=O)Cc2ccc(C(F)(F)F)cc2)NC(=O)[C@@H]2C[C@@H](OC(=O)N3Cc4cccc(F)c4C3)CN2C1=O", "note": "[Compound 519]", "EC50": "100 to 1000"},
      {"smiles": "CC(C)(C)OC(=O)N[C@H]1CCCCC/C=C\\[C@@H]2C[C@@]2(C(=O)NS(=O)(=O)c2ccccc2Cl)NC(=O)[C@@H]2C[C@@H](OC(=O)N3Cc4cccc(F)c4C3)CN2C1=O", "note": "[Compound 332]", "EC50": "< 100"},
      {"smiles": "CC(C)(C)OC(=O)N[C@H]1CCCCC/C=C\\[C@@H]2C[C@@]2(C(=O)NS(=O)(=O)c2c(F)cccc2F)NC(=O)[C@@H]2C[C@@H](OC(=O)N3Cc4cccc(F)c4C3)CN2C1=O", "note": "[Compound 306]", "EC50": "100 to 1000"},
      {"smiles": "CC(C)(C)OC(=O)N[C@H]1CCCCCCC[C@@H]2C[C@@]2(C(=O)NS(=O)(=O)c2ccccc2C(F)(F)F)NC(=O)[C@@H]2C[C@@H](OC(=O)N3Cc4cccc(F)c4C3)CN2C1=O", "note": "[Compound 605]", "EC50": "< 100"},
      {"smiles": "CC(=O)O[C@@H]1C[C@H]2C(=O)N[C@]3(C(=O)NS(=O)(=O)C4CC4)C[C@H]3/C=C\\CCCCC[C@H](Nc3nc(-c4ccc(F)cc4)cs3)C(=O)N2C1", "note": "[Compound 233]", "EC50": "100 to 1000"},
      {"smiles": "CC(C)(C)OC(=O)N[C@H]1CCCCC[C@H]2C[C@H]2[C@@H]2C[C@@]2(C(=O)NS(=O)(=O)C2CC2)NC(=O)[C@@H]2C[C@@H](OC(=O)N3Cc4cccc(F)c4C3)CN2C1=O", "note": "[Compound 904]", "EC50": "< 100"},
      {"smiles": "Cc1csc(S(=O)(=O)NC(=O)[C@@]23C[C@H]2/C=C\\CCCCC[C@H](NC(=O)OC(C)(C)C)C(=O)N2C[C@H](OC(=O)N4Cc5cccc(F)c5C4)C[C@H]2C(=O)N3)c1", "note": "[Compound 539]", "EC50": "< 100"},
      {"smiles": "CC(=O)O[C@@H]1C[C@H]2C(=O)N[C@]3(C(=O)NS(=O)(=O)C4CC4)C[C@H]3/C=C\\CCCCC[C@H](Nc3nc(-c4ccc(F)cc4)c(C)s3)C(=O)N2C1", "note": "[Compound 239]", "EC50": "100 to 1000"},
      {"smiles": "CC(C)(C)OC(=O)N[C@H]1CCCCCCC[C@@H]2C[C@@]2(C(=O)NS(=O)(=O)c2ccccc2Cl)NC(=O)[C@@H]2C[C@@H](OC(=O)N3Cc4cccc(F)c4C3)CN2C1=O", "note": "[Compound 603]", "EC50": "< 100"},
      {"smiles": "CC(C)ONC(=O)[C@@]12C[C@H]1CCCCCCC[C@H](NC(=O)OC(C)(C)C)C(=O)N1C[C@H](OC(=O)N3Cc4cccc(F)c4C3)C[C@H]1C(=O)N2", "note": "[Compound 812]", "EC50": "< 100"},
      {"smiles": "Cc1ccccc1S(=O)(=O)NC(=O)[C@@]12C[C@H]1/C=C\\CCCCC[C@H](NC(=O)OC1CCC1)C(=O)N1C[C@H](OC(=O)N3Cc4cccc(F)c4C3)C[C@H]1C(=O)N2", "note": "[Compound 338]", "EC50": "< 100"}
    ]}
  ]
}
